# Laboratory results from publication PMC4318582, “Chemotherapy of Second Stage Human African Trypanosomiasis: Comparison between the Parenteral Diamidine DB829 and Its Oral Prodrug DB868 in Vervet Monkeys” (PLoS Neglected Tropical Diseases, 2015).
# Where “and” joins values, the source holds several entries; their conditions need not be identical. Equal values may be shown once. Entries after “also recorded” stand apart in the source; their conditions may differ. Read-outs that look alike come from different tables or passages of the source.
# How the values were obtained:
# [1] = system: T. b. rhodesiense KETRI 2537; assay: Efficacy in KETRI vervet monkey model of second stage HAT; assay type: in vivo
# Source text: The current study used the KETRI vervet monkey model of HAT, a model developed over 30 years ago through the experimental infection of vervet monkeys with T. b. rhodesiense. […] Trypanosomes were identified in peripheral blood first and cerebrospinal fluid (CSF) second, allowing the disease to be classified into an early (haemo-lymphatic) and a late (central nervous system [CNS]) stage, similar to the human disease. […] Monkey trypanosomal infections have been determined to be invariably fatal without therapeutic intervention, a characteristic also widely accepted as true for human sleeping sickness.
# Parasitaemia and CSF parasitosis were monitored using established techniques for blood trypanosomes and CSF trypanosomes, respectively.
# Due to a regulated freeze on acquisitions of new non-human primates, only six monkeys were available for the IM DB829 study. These animals were divided into three treatment groups, each consisting of one male and one female, to compare dose-responsiveness between consecutive- and alternate-day dosing. Monkeys were treated with 2.5 or 5 mg/kg/day for 5 consecutive days or with 5 mg/kg/day on alternating days for a total of 5 doses (Table 1).
# Twelve additional monkeys were available for the oral DB868 efficacy study. These animals were, before infection, divided into three groups, each consisting of two males and two females. DB868 was administered orally to each group at 3, 10 or 20 mg/kg/day for 10 consecutive days (Table 2).
# Parasitaemia post-infection was monitored daily, using ear-prick capillary blood, through the completion of DB868 and DB829 treatment. […] At 300 days post-LDD, monkeys were considered cured if they remained normal clinically and parasite-free in the blood and CSF. Pharmacokinetic outcomes were monitored for a minimum of 60 days post-LDD as described previously. […] Monkeys that relapsed, characterized by trypanosome recrudescence in the blood or CSF, were rescue-treated with melarsoprol.
# [2] = system: T. b. rhodesiense KETRI 2537; conditions: cited from earlier work
# [3] = Plasma pharmacokinetics in infected vervet monkeys (HPLC-MS/MS); assay type: in vivo, vervet monkey; conditions: for geometric mean plasma concentration (range) of prodrug DB868: within 1 h post-LDD
# Source text: (§1) Parasitaemia post-infection was monitored daily, using ear-prick capillary blood, through the completion of DB868 and DB829 treatment. Following the last drug dose (LDD), blood and CSF samples were examined for trypanosomes at 1, 4, 7, and 14 days to determine the end of treatment (EoT) response; monkeys which were positive for trypanosomes in either blood or CSF at the end of this 14-day period were classified as treatment failures/not cured while those that were free of trypanosomes were classified as provisionally cured. After the 14-day EoT evaluations, parasitaemia examinations were continued twice weekly to ≥ 300 days post-LDD as described previously. Additionally, physical examinations and haematological assessments were carried out once weekly up to 28 days post-LDD, once every two weeks between 28 and 100 days post-LDD, and monthly thereafter until the end of the study as described previously. At 300 days post-LDD, monkeys were considered cured if they remained normal clinically and parasite-free in the blood and CSF. Pharmacokinetic outcomes were monitored for a minimum of 60 days post-LDD as described previously. To facilitate the collection of blood and CSF for these assessments, the monkeys were anaesthetised with an IM injection of ketamine HCl (10–15 mg/kg) and diazepam (0.5 mg/kg). Monkeys that relapsed, characterized by trypanosome recrudescence in the blood or CSF, were rescue-treated with melarsoprol. Melarsoprol (Mel B), supplied by the World Health Organization as a 3.6% (w/v) solution in propylene glycol, was administered intravenously at 3.6 mg/kg/day for 4 consecutive days.
# Plasma samples were processed for quantification of DB868 and DB829 by high performance liquid chromatography-tandem mass spectrometry (HPLC-MS/MS) as described previously. CSF samples were processed in a manner similar to that of plasma samples.
# Clinical and haematological data were analysed using Statview for Windows Version 5.0.1 (1995–1998; SAS Institute Inc., Cary, NC, USA). Repeated measures ANOVA, with Fisher’s PLSD post hoc test, was used to test the effect of trypanosome infection on haematologic parameters in comparison with respective baseline values (α = 0.05). In addition, the effects of IM DB829 and oral DB868 on these haematologic parameters in monkeys with confirmed second stage HAT were tested. Pharmacokinetic outcomes were recovered using traditional non-compartmental methods using Phoenix WinNonlin (version 6.2; Pharsight, Mountain View, CA, USA).
# T. b. brucei GVR35 = system: T. b. brucei GVR35; set-up: method as in PMID 19620327; conditions: cited from earlier work
# [4] = Tolerability of dose regimens in infected vervet monkeys; assay type: in vivo, vervet monkey; conditions: all IM DB829 and oral DB868 dose regimens
# Source text: as §1, with “Monkeys that relapsed, characterized by trypanosome recrudescence in the blood or CSF, were rescue-treated with melarsoprol. Melarsoprol (Mel B), supplied by the World Health Organization as a 3.6% (w/v) solution in propylene glycol, was administered intravenously at 3.6 mg/kg/day for 4 consecutive days.” left out
# [5] = set-up: method as in earlier work; conditions: cited from earlier work
# African trypanosomes = system: African trypanosomes; set-up: method as in PMID 18722336, PMID 19620327; conditions: oral administration; cited from earlier work
# [6] = system: human intestinal cell line (Caco-2); set-up: method as in PMID 12458675, PMID 15294005; conditions: cited from earlier work
# T. b. rhodesiense = conditions: oral prodrug; cited from earlier work
# [7] = all oral DB868 regimens combined
# [8] = oral 10 mg/kg × 10 days, monkeys 688M, 690F, 695M, 697F, 10 mg/kg
# [9] = oral 20 mg/kg × 10 days, monkeys 573F, 679F, 689M, 696M, 20 mg/kg
smiles,measurement,setting,value
"Nc1nc(N)nc(Nc2ccc([As]3SCC(CO)S3)cc2)n1 (stereo not drawn) [melarsoprol, reference compound]",rescue treatment of monkeys that relapsed after DB868,"[1]; melarsoprol intravenously 3.6 mg/kg/day for 4 consecutive days, 3.6 mg/kg/day",successfully rescue-treated and 5/6
"N=C(N)c1ccc(OCCCCCOc2ccc(C(=N)N)cc2)cc1 [pentamidine, reference compound]",cure rate when treatment initiation was delayed to 14 days post-infection,"[2]; IM, monkeys, T. b. rhodesiense KETRI 2537, ref unpublished data, TRC-KARI",0/3
same,cure rate in first stage disease,"[2]; IM, monkeys",2/3
"CONC(=N)c1ccc(-c2ccc(-c3ccc(C(=N)NOC)cn3)o2)nc1 [DB868, 2,5-bis[5-(N-methoxyamidino)-2-pyridyl]furan]",decline of prodrug DB868 plasma concentrations,"[3]; oral DB868, all monkeys, post-LDD",undetectable after 8 h
same,geometric mean plasma concentration (range) of prodrug DB868,[3]; oral DB868 3 mg/kg/day,120 (100–150) nmol/L
same,geometric mean plasma concentration (range) of prodrug DB868,[3]; oral DB868 10 mg/kg/day,750 (420–1500) nmol/L
same,geometric mean plasma concentration (range) of prodrug DB868,[3]; oral DB868 20 mg/kg/day,810 (370–1300) nmol/L
same,"Final efficacy assessment at 300 days post-LDD of DB868, Overall Results (combined cure rate)",[1]; [7],2/10
same,"Provisional efficacy at 100 days post-LDD of DB868, Overall Results",[1]; [7],4/10
same,"Provisional efficacy at EoT, Overall Results",[1]; [7],8/10
same,Time to relapse,"[1]; oral 3 mg/kg × 10 days, 28–37 DPI, monkey 687M",14 days post-LDD
same,Cured/treated,"[1]; oral 3 mg/kg × 10 days, 3 mg/kg",did not cure any monkey and did not achieve cure in any monkey and 0/2
same,Provisional efficacy at EoT,"[1]; oral 3 mg/kg × 10 days, monkeys 670F, 687M",Not cured
same,drug dose after which brief period of aparasitaemia started,"[1]; oral 3 mg/kg/day × 10 days, 34 DPI",7 drug dose
same,Cured/treated,[1]; oral 10 mg/kg × 10 days,1/4
same,Time to initial clearance of trypanosomes from body fluids (blood and CSF),"[1]; oral 10 mg/kg × 10 days, 28–37 DPI",1 days post-LDD
same,Time to relapse,"[1]; oral 10 mg/kg × 10 days, 28–37 DPI, individual monkeys, 10 mg/kg",56 days post-LDD and 28 days post-LDD
same,Provisional efficacy at EoT,"[1]; oral 10 mg/kg × 10 days, monkeys 688M, 690F, 695M, 697F",Cured
same,Final efficacy assessment at 300 days post-LDD of DB868,[1]; [8],R and Cured
same,Provisional efficacy at 100 days post-LDD of DB868,[1]; [8],R and Cured
same,median (range) time to relapse,[1]; oral 10 mg/kg/day × 10 days,28 (28–56) days post-LDD
same,monkeys relapsed,[1]; oral 10 mg/kg/day × 10 days,3/4
same,day of dosing by which monkeys became blood parasite negative,"[1]; oral 10 mg/kg/day × 10 days, 34 DPI",≤ 7 day of dosing
same,Cured/treated,[1]; oral 20 mg/kg × 10 days,1/4
same,Time to relapse,"[1]; oral 20 mg/kg × 10 days, 28–37 DPI, individual monkeys, 20 mg/kg",161 days post-LDD and 133 days post-LDD and 77 days post-LDD
same,Provisional efficacy at EoT,"[1]; oral 20 mg/kg × 10 days, monkeys 573F, 679F, 689M, 696M",Cured
same,Final efficacy assessment at 300 days post-LDD of DB868,[1]; [9],R and Cured
same,Provisional efficacy at 100 days post-LDD of DB868,[1]; [9],R and Cured
same,monkeys relapsed,[1]; oral 20 mg/kg/day × 10 days,3/4
same,median (range) time to relapse,"[1]; oral 20 mg/kg/day × 10 days, 20 mg/kg/day",133 (77–161) days post-LDD and 133 days post-LDD
same,day of treatment by which monkeys became aparasitaemic (blood),"[1]; oral 20 mg/kg/day × 10 days, 34 DPI",≤ 7 day of treatment
same,efficacy against first stage HAT in monkeys,[2]; oral,highly active; also recorded: fully curative
same,"tolerability in monkeys, first stage HAT study",[2]; oral,well-tolerated
same,efficacy in the murine model of second stage HAT,T. b. brucei GVR35,fully curative
same,tolerability of dose regimens,[4],well tolerated
same,tolerability in rats,[5],better tolerated than pafuramidine
"CONC(=N)c1ccc(-c2ccc(-c3ccc(C(=N)NOC)cc3)o2)cc1 [pafuramidine, 2,5-bis (4-amidinophenyl)-furan-bis-O-methlylamidoxime]",efficacy in murine models of first and second stage HAT,African trypanosomes,fully curative
same,absorptive permeability compared with the active diamidine furamidine (DB75),[6],improved absorptive permeability
same,efficacy against first stage HAT in monkeys,[2]; oral administration,fully curative
same,cure rate against second stage HAT in non-human primates,T. b. rhodesiense,0/3
CON=C(N)c1ccc(-c2ccc(-c3ccc(C(N)=NOC)cn3)o2)cc1 [DB844],efficacy in murine models of first and second stage HAT,African trypanosomes,fully curative
same,cure rate against second stage HAT in non-human primates,T. b. rhodesiense,3/7
